How the values were obtained:
[1] = refractive index (Na D-line) (dimensionless); xn = mol fraction of the nth substance listed; details: 100 kPa, Liquid, Standard Abbe refractometry, x1 = 0.25
[2] = xn = mol fraction of the nth substance listed; details: 100 kPa, Liquid, x1 = 0.25; for electrical conductivity: Alternating current cell with electrodes; for viscosity: Falling or rolling sphere viscometry; for speed of sound: Single path-length method; for mass density: Vibrating tube method

C[N+](C)(C)Cc1ccccc1.[Cl-] [trimethylbenzylammonium chloride] + OCCOCCOCCO
Details	electrical conductivity, [2] [S/m]	mass density, [2] [kg/m3]	refractive index, [1]	speed of sound, [2] [m/s]	viscosity, [2] [mPa·s]
283.15 K	0.048	1127.45	1.4923	1776.2	620.1
288.15 K	0.063	1124.08	1.4908	1761	470.8
293.15 K	0.081	1120.7	1.4894	1746.2	370.5
298.15 K	0.101	1117.31	1.488	1731.4	308.8
303.15 K	0.124	1113.93	1.4865	1716.9	214.3
308.15 K	0.152	1110.57	1.4849	1702.8	155.7
313.15 K	0.187	1107.21	1.4836	1688.5	115.6
318.15 K	0.226	1103.87	1.4821	1674.6	87.8
323.15 K	0.278	1100.54	1.4807	1660.8	68.5
328.15 K	0.325	1097.22	1.4792	1647.2	54.9
333.15 K	0.377	1093.9	1.4778	1633.6	43.5
338.15 K	0.44	1090.59	1.4763	1620.1	34.3
343.15 K	0.506	1087.29	1.4749	1606.6	27.4

From the NIST ThermoML archive (doi:10.1021/acs.jced.8b00213)
